The values below come from paper PMC8132113 (Cancer letters, 2019).

The target of this experiment is ABCB1 (Homo sapiens, UniProt P08183). The experiment in a line: vanadate-sensitive ATPase assay. The experiment is classed as biochemical.
Chain of ABCB1 (P08183 whole entry): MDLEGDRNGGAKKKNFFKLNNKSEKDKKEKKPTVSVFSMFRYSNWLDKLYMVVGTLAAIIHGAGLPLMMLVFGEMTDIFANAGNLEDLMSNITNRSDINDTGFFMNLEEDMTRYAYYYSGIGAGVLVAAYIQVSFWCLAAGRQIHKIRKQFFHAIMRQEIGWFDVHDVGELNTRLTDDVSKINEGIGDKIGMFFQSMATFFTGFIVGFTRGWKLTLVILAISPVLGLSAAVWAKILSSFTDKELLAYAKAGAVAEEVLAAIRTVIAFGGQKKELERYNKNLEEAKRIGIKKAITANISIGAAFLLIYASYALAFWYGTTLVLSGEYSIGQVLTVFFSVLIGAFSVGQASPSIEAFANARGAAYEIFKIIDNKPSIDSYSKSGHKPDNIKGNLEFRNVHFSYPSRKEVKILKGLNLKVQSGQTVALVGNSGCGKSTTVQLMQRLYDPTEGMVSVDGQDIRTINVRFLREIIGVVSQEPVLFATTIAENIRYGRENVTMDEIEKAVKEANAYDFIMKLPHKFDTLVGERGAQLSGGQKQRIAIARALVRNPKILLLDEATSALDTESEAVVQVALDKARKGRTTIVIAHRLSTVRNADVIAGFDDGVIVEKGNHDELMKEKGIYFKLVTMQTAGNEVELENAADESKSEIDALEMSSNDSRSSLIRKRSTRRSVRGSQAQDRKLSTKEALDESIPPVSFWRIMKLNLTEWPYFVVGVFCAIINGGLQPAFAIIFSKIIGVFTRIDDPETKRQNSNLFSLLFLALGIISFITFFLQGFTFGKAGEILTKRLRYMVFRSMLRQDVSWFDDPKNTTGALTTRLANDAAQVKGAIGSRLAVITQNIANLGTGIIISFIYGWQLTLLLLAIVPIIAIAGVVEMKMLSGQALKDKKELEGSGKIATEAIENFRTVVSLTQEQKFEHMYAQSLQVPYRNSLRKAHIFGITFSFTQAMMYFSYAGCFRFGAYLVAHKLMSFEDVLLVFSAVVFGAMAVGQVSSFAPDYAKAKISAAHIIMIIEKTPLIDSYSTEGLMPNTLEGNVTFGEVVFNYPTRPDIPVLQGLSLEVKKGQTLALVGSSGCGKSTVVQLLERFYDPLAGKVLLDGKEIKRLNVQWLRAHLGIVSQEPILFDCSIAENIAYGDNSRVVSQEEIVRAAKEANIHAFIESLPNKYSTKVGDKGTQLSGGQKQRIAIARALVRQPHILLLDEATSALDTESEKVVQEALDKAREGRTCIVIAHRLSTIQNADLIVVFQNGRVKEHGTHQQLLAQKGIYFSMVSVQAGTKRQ

As a reminder, the IC50 is the point on the concentration scale where inhibition reaches its midpoint. The low end stands for inhibition by little substance, the high end for a need for much substance. As for `CO[C@@H]1[C@H](N(C)C(=O)c2ccccc2)C[C@H]2O[C@]1(C)n1c3ccccc3c3c4c(c5c6ccccc6n2c5c31)C(=O)NC4` [midostaurin], the IC50 was ~10 µM.
